Test results published in PubChem BioAssay (NCI).
“And” between values parts separate entries of the source, which are not always exact repeats. Identical values can stand only once.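 Briefly, cells in 96-well plates were exposed to five compound concentrations for 48 h, and endpoints were estimated by linear interpolation. The concentration for 50% growth inhibition is given as GI50. TGI: concentration producing complete growth inhibition.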

Legend:
Assay in all cases: NCI tumour cell line growth inhibition, 48 h
SW-620 colon = system: SW-620 colon
UO-31 renal = system: UO-31 renal
MALME-3M melanoma = system: MALME-3M melanoma
SNB-75 CNS = system: SNB-75 CNS
SK-MEL-28 melanoma = system: SK-MEL-28 melanoma
HL-60(TB) leukemia = system: HL-60(TB) leukemia
NCI-H226 lung = system: NCI-H226 lung
SK-MEL-5 melanoma = system: SK-MEL-5 melanoma
SNB-19 CNS = system: SNB-19 CNS
M14 melanoma = system: M14 melanoma

Structure (SMILES)	GI50 (SW-620 colon) [µM]	TGI (SW-620 colon) [µM]	GI50 (UO-31 renal)	TGI (UO-31 renal)	GI50 (MALME-3M melanoma) [µM]	TGI (MALME-3M melanoma)	GI50 (SNB-75 CNS)	TGI (SNB-75 CNS) [µM]	GI50 (SK-MEL-28 melanoma) [µM]	TGI (SK-MEL-28 melanoma)	GI50 (HL-60(TB) leukemia)	TGI (HL-60(TB) leukemia)	GI50 (NCI-H226 lung)	TGI (NCI-H226 lung) [µM]	GI50 (SK-MEL-5 melanoma) [µM]	TGI (SK-MEL-5 melanoma)	GI50 (SNB-19 CNS) [µM]	TGI (SNB-19 CNS) [µM]	GI50 (M14 melanoma) [µM]	TGI (M14 melanoma)
CCCCCCCCCCCCCCCC1=NCCN1	1.9	3.77	1.65 µM	3.47 µM	2.38	6.46 µM	1.58 µM	3.44	1.88	3.77 µM	1.73 µM	3.89 µM	2.12 µM	4.7	1.81	3.24 µM	–	–	–	–
C=C1C(=O)O[C@H]2[C@H]1CC/C(COC(=O)NCc1c[nH]c3ccccc13)=C\CC[C@@]1(C)O[C@@H]21	1.7	4.28	1.34 µM	2.68 µM	2.02	5.21 µM	9.86 µM	21.7	2.65	8.99 µM	1.54 µM	4.22 µM	2 µM	5.55	12.1	25 µM	10.6	22.8	1.91	5 µM
CCN(CC)CCCC(C)Nc1ccnc2cc(Cl)ccc12 (stereo not given)	–	> 100	84.8 µM	> 100 µM and 46.4 µM	–	48.7 µM and 35.7 µM	> 100 µM	> 100	39.9	> 100 µM and 42.3 µM	36.1 µM	> 100 µM and 34.2 µM	> 100 µM	> 100	21.9	48.2 µM and 63.3 µM	> 100	> 100	18.5	32.5 µM and 28.4 µM
Cc1ccc(Nc2nccc(N(C)c3ccc4c(C)n(C)nc4c3)n2)cc1S(N)(=O)=O	–	> 100	3.13 µM and 0.539 µM and 4.67 µM	> 100 µM	–	> 74.4 µM	2.39 µM and 1.03 µM and 5.83 µM	–	–	> 100 µM and > 10 µM and 84.2 µM	6.45 µM and 1.94 µM and 7.14 µM	30.6 µM and > 10 µM and 34 µM	0.781 µM and 0.425 µM and 1.41 µM	> 100	2.41	10.8 µM	–	> 100	–	–
CCCCCOCC(O)CO (stereo not given)	–	> 100	–	–	–	> 100 µM	–	–	–	> 100 µM	–	–	–	> 100	–	> 100 µM	–	> 100	–	–
COc1cc2c3cc1Oc1c(OC)c(OC)cc4c1C(=NCC4)Cc1ccc(cc1)Oc1cc(ccc1O)C[C@H]3N(C)CC2	–	36.7	–	–	–	18 µM	–	40.2	–	30.3 µM	–	96.5 µM	–	61.2	–	24.6 µM	–	61.6	–	29.8 µM
CC1CCN(Cc2ccc(NC(=O)c3cc4ccc5cccnc5c4[nH]3)cc2)CC1	3.4	16.6	2.05 µM	8.18 µM	2.05	3.72 µM	10.8 µM	27.8	1.79	3.49 µM	3.16 µM	13.1 µM	23.5 µM	73.4	–	–	13.1	27.6	2.05	4.08 µM
N#CC12CCC1C1CCCCC12N1CCSCC1 (stereo not given)	–	> 100	–	> 100 µM	–	–	–	> 100	–	> 100 µM	–	46.1 µM	–	–	–	–	–	> 100	–	–
CCC(=O)N1C(=O)OCC1C(C)C (stereo not given)	–	> 100	–	> 100 µM	–	> 100 µM	–	> 100	–	–	–	> 100 µM	–	–	–	> 100 µM	–	> 100	–	> 100 µM
CCCCN1CCCC[C@@H]1C(=O)N[C@H](C(=O)N(C)[C@H](C[C@@H](OC(C)=O)c1nc(C(=O)NC2CCC(C(=O)OC)CC2)cs1)C(C)C)C(C)C (stereo not given in full)	1.06	> 25	7.06 µM	> 25 µM	1.97	> 25 µM	–	–	17.9	> 25 µM	0.732 µM	2.17 µM	3.84 µM	> 25	1.22	> 25 µM	1.83	> 25	0.983	18.1 µM
O=C(CCl)NCCNc1nccc(Nc2ccc(S(=O)(=O)Nc3ccccn3)cc2)n1	2.49	7.27	2.77 µM	10 µM	2.3	10.5 µM	2.84 µM	13.3	2.97	13.5 µM	–	–	3.34 µM	28.3	1.53	2.94 µM	2.42	7.56	1.72	4.69 µM
N#CC(C(=O)C(=O)Nc1ccccc1)c1ccccc1 (stereo not given)	–	> 100	–	> 100 µM	–	> 100 µM	–	> 100	–	> 100 µM	–	> 100 µM	–	> 100	–	–	–	> 100	–	> 100 µM
COc1ccc2c(c1)c(-c1nc(-c3c[nH]c4ncccc34)cs1)cn2CCCN1CCCCC1	2	3.95	1.38 µM	2.83 µM	–	–	1.19 µM	3.09	1.72	3.26 µM	1.86 µM	3.79 µM	–	–	–	–	–	–	1.79	3.51 µM
CSC(=NC#N)S/C=C/C(=O)c1ccccc1	18	43.3	28.3 µM	> 100 µM	31.2	74.7 µM	–	–	58	> 100 µM	–	–	–	–	45.9	> 100 µM	> 100	> 100	24.7	65.8 µM
COc1cc(/C=C(\NC(=O)c2ccccc2)c2nc3ccc4c(c3[nH]2)C(=O)c2ccccc2C4=O)cc(OC)c1OC	–	> 100	–	13.5 µM	–	> 100 µM	–	75.3	–	> 100 µM	–	–	–	> 100	–	> 100 µM	–	> 100	–	> 100 µM
O=C1CSC(=S)N1c1ccco1	–	> 100	–	–	–	> 100 µM	–	–	–	> 100 µM	–	> 100 µM	–	> 100	–	> 100 µM	–	> 100	–	> 100 µM
CC(C)C12Cc3c(ccc4ccccc34)OC1(C)Oc1ccc3ccccc3c1C2 (stereo not given)	–	> 100	–	> 100 µM	–	> 100 µM	–	> 100	–	–	–	–	–	> 100	–	> 100 µM	–	> 100	–	> 100 µM
